Measured values: PubChem BioAssay (NCI)
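Briefly, cells in 96-well plates were exposed to five compound concentrations for 48 h, and endpoints were estimated by linear interpolation. GI50 marks 50% less growth. TGI denotes the concentration required for complete inhibition of growth.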

Assays:
Assay in all cases: DTP human tumour cell line panel, 48 h
A498 renal = system: A498 renal
OVCAR-3 ovarian = system: OVCAR-3 ovarian
SW-620 colon = system: SW-620 colon
DU-145 prostate = system: DU-145 prostate
MDA-MB-231 breast = system: MDA-MB-231 breast
U251 CNS = system: U251 CNS
HL-60(TB) leukemia = system: HL-60(TB) leukemia
ACHN renal = system: ACHN renal
NCI-H460 lung = system: NCI-H460 lung
A549 NSCLC = system: A549 NSCLC
SK-MEL-5 melanoma = system: SK-MEL-5 melanoma
NCI-H522 lung = system: NCI-H522 lung
HOP-92 NSCLC = system: HOP-92 NSCLC
HT29 colon = system: HT29 colon
SN12C renal = system: SN12C renal
UACC-62 melanoma = system: UACC-62 melanoma
MOLT-4 leukemia = system: MOLT-4 leukemia
COLO 205 colon = system: COLO 205 colon
BT-549 breast = system: BT-549 breast
LOX IMVI melanoma = system: LOX IMVI melanoma
HS 578T breast = system: HS 578T breast
SNB-19 CNS = system: SNB-19 CNS
SF-295 CNS = system: SF-295 CNS
CCRF-CEM leukemia = system: CCRF-CEM leukemia
NCI/ADR-RES ovarian = system: NCI/ADR-RES ovarian
SF-539 CNS = system: SF-539 CNS
RPMI-8226 leukemia = system: RPMI-8226 leukemia
UACC-257 melanoma = system: UACC-257 melanoma
NCI-H23 lung = system: NCI-H23 lung
SNB-75 CNS = system: SNB-75 CNS
OVCAR-5 ovarian = system: OVCAR-5 ovarian
TK-10 renal = system: TK-10 renal
OVCAR-8 ovarian = system: OVCAR-8 ovarian
HCC-2998 colon = system: HCC-2998 colon
MCF7 breast = system: MCF7 breast
K-562 leukemia = system: K-562 leukemia
RXF 393 renal = system: RXF 393 renal
HCT-116 colon = system: HCT-116 colon
PC-3 prostate = system: PC-3 prostate
EKVX NSCLC = system: EKVX NSCLC
M14 melanoma = system: M14 melanoma
SK-MEL-2 melanoma = system: SK-MEL-2 melanoma
SF-268 CNS = system: SF-268 CNS
KM12 colon = system: KM12 colon
HOP-62 NSCLC = system: HOP-62 NSCLC
UO-31 renal = system: UO-31 renal
MDA-MB-435 = system: MDA-MB-435
IGROV1 ovarian = system: IGROV1 ovarian
CAKI-1 renal = system: CAKI-1 renal
SK-MEL-28 melanoma = system: SK-MEL-28 melanoma
NCI-H226 lung = system: NCI-H226 lung
MALME-3M melanoma = system: MALME-3M melanoma
T-47D breast = system: T-47D breast
HCT-15 colon = system: HCT-15 colon

SMILES: CN1CC(CNC(=O)OCc2ccccc2)CC2c3cccc4c3c(cn4C)CC21 (stereo not drawn)
- GI50 (A498 renal): 3470 nM
- TGI (A498 renal): 16000 nM
- GI50 (OVCAR-3 ovarian): 2630 nM
- TGI (OVCAR-3 ovarian): 7790 nM
- GI50 (SW-620 colon): 1590 nM
- TGI (SW-620 colon): 3120 nM
- GI50 (DU-145 prostate): 3880 nM
- TGI (DU-145 prostate): 14400 nM
- GI50 (MDA-MB-231 breast): 1650 nM
- TGI (MDA-MB-231 breast): 3280 nM
- GI50 (U251 CNS): 1460 nM
- TGI (U251 CNS): 2910 nM
- GI50 (HL-60(TB) leukemia): 1910 nM
- TGI (HL-60(TB) leukemia): 3850 nM
- GI50 (ACHN renal): 2290 nM
- TGI (ACHN renal): 5580 nM
- GI50 (NCI-H460 lung): 1830 nM
- TGI (NCI-H460 lung): 3550 nM
- GI50 (A549 NSCLC): 2220 nM
- TGI (A549 NSCLC): 5240 nM
- GI50 (SK-MEL-5 melanoma): 1490 nM
- TGI (SK-MEL-5 melanoma): 2860 nM
- GI50 (NCI-H522 lung): 1730 nM
- TGI (NCI-H522 lung): 3330 nM
- GI50 (HOP-92 NSCLC): 1720 nM
- TGI (HOP-92 NSCLC): 5950 nM
- GI50 (HT29 colon): 1400 nM
- TGI (HT29 colon): 3270 nM
- GI50 (SN12C renal): 2860 nM
- TGI (SN12C renal): 11300 nM
- GI50 (UACC-62 melanoma): 1660 nM
- TGI (UACC-62 melanoma): 3170 nM
- GI50 (MOLT-4 leukemia): 2360 nM
- TGI (MOLT-4 leukemia): 5250 nM
- GI50 (COLO 205 colon): 1370 nM
- TGI (COLO 205 colon): 2750 nM
- GI50 (BT-549 breast): 2070 nM
- TGI (BT-549 breast): 4620 nM
- GI50 (LOX IMVI melanoma): 1640 nM
- TGI (LOX IMVI melanoma): 3210 nM
- GI50 (HS 578T breast): 1990 nM
- TGI (HS 578T breast): 6960 nM
- GI50 (SNB-19 CNS): 1800 nM
- TGI (SNB-19 CNS): 3990 nM
- GI50 (SF-295 CNS): 2090 nM
- TGI (SF-295 CNS): 4760 nM
- GI50 (CCRF-CEM leukemia): 2480 nM
- TGI (CCRF-CEM leukemia): 7810 nM
- GI50 (NCI/ADR-RES ovarian): 1820 nM
- TGI (NCI/ADR-RES ovarian): 4490 nM
- GI50 (SF-539 CNS): 1640 nM
- TGI (SF-539 CNS): 3240 nM
- GI50 (RPMI-8226 leukemia): 2140 nM
- TGI (RPMI-8226 leukemia): 5360 nM
- GI50 (UACC-257 melanoma): 1420 nM
- TGI (UACC-257 melanoma): 2810 nM
- GI50 (NCI-H23 lung): 2610 nM
- TGI (NCI-H23 lung): 10600 nM
- GI50 (SNB-75 CNS): 1900 nM
- TGI (SNB-75 CNS): 4680 nM
- GI50 (OVCAR-5 ovarian): 1980 nM
- TGI (OVCAR-5 ovarian): 4910 nM
- GI50 (TK-10 renal): 1920 nM
- TGI (TK-10 renal): 3670 nM
- GI50 (OVCAR-8 ovarian): 1750 nM
- TGI (OVCAR-8 ovarian): 3510 nM
- GI50 (HCC-2998 colon): 1670 nM
- TGI (HCC-2998 colon): 3190 nM
- GI50 (MCF7 breast): 1770 nM
- TGI (MCF7 breast): 3290 nM
- GI50 (K-562 leukemia): 1690 nM
- TGI (K-562 leukemia): 4440 nM
- GI50 (RXF 393 renal): 1740 nM
- TGI (RXF 393 renal): 3200 nM
- GI50 (HCT-116 colon): 1720 nM
- TGI (HCT-116 colon): 4180 nM
- GI50 (PC-3 prostate): 2070 nM
- TGI (PC-3 prostate): 6280 nM
- GI50 (EKVX NSCLC): 5200 nM
- TGI (EKVX NSCLC): 21300 nM
- GI50 (M14 melanoma): 2140 nM
- TGI (M14 melanoma): 4680 nM
- GI50 (SK-MEL-2 melanoma): 1880 nM
- TGI (SK-MEL-2 melanoma): 3450 nM
- GI50 (SF-268 CNS): 3480 nM
- TGI (SF-268 CNS): 13400 nM
- GI50 (KM12 colon): 2140 nM
- TGI (KM12 colon): 4650 nM
- GI50 (HOP-62 NSCLC): 1520 nM
- TGI (HOP-62 NSCLC): 2980 nM
- GI50 (UO-31 renal): 1240 nM
- TGI (UO-31 renal): 4220 nM
- GI50 (MDA-MB-435): 1810 nM
- TGI (MDA-MB-435): 3530 nM
- GI50 (IGROV1 ovarian): 1770 nM
- TGI (IGROV1 ovarian): 4490 nM
- GI50 (CAKI-1 renal): 1680 nM
- TGI (CAKI-1 renal): 3650 nM
- GI50 (SK-MEL-28 melanoma): 1620 nM
- TGI (SK-MEL-28 melanoma): 3030 nM
- GI50 (NCI-H226 lung): 2820 nM
- TGI (NCI-H226 lung): 9060 nM
- GI50 (MALME-3M melanoma): 1570 nM
- TGI (MALME-3M melanoma): 3140 nM
- GI50 (T-47D breast): 2260 nM
- TGI (T-47D breast): 4670 nM
- GI50 (HCT-15 colon): 1690 nM
- TGI (HCT-15 colon): 3520 nM
